# In patent US7488476B2, “B-cell epitope peptides of HSP 65, DNA encoding said peptides, antibodies directed against said peptides and the different uses thereof in the treatment of inflammatory and autoimmune diseases” (priority 1998, dated 2009):
# Columns and labels:
# rat immunoglobulins [1] = experiment: ELISA: antibodies of rat sera to Mycobacterial HSP 65 and its peptides; format: binding
# rat immunoglobulins [2] = experiment: ELISA: antibodies of rat sera to mammalian HSP 60 and its peptides; format: binding
# Procedure: (§1) ELISA: Flat-bottomed 96 well plates (Corning) were coated with mammalian HSP 60 or Mycobacterial HSP 65 (10 μg/ml) in carbonate buffer pH 9.6 overnight at 4° C.
# After extensive washing with PBS-Tween 0.05% plates were incubated with blocking buffer containing 1% BSA (Sigma) for 60 min. at RT.
# (§2) HSP peptides were attached to plates pre-treated with glutaraldehyde according to Kasprzyk et al.. Shortly, plates were coated with 100 μl/well of 5% w/v of glutaraldehyde in PBS for 1 hour at room temp. Plates were washed thoroughly with PBS and peptides (1 μg/100 μl) were added to each well, incubated overnight at 4° C. Plates were shaken dry and blocked with BSA 1% in PBS.
# (§3) Plates coated with either HSP or peptides were washed again and incubated with rat sera diluted 1:100 with PBS-Tween 0.01% for 90 min. at room temp. After re-washing the plates were incubated with Goat anti rat IgG or IgM conjugated to alkaline-phosphatase for 60 min. at room temp. […] Optical density was measured photometrically at 405 nm.
# Previous studies have shown that certain bacterial HSP peptides may trigger self HSP reactive T-cells with disease suppressive regulatory potential. To analyze the anti self-HSP antibody repertoire of these rats, the reactivity of Ig's from naive and post AA Lewis rats as well as from naive BN rats to whole mammalian HSP 60 was tested by ELISA.
# (§4) Immunoglobulins from naive Lewis and BN rats and post-AA Lewis rats were tested for binding to 38 synthetic 20-mer peptides of the mammalian HSP 60 by Dot-Blot. […] Quantitative analysis of this binding as well as the binding of immunoglobulins from four and nine month old Lewis rats confirmed the dot blot findings (Table 3).
# Lewis rats [3] = experiment: Anti HSP antibodies in Lewis rats immunized with HSP peptides (ELISA); format: in vivo, rat; settings: 100 μg peptide in PBS, 3 times IP; for Anti HSP Antibodies in Immunized Lewis Rats, Antigen 6: antigen peptide 6; for Anti HSP Antibodies in Immunized Lewis Rats, Antigen 7: antigen peptide 7
# Procedure: as §1, §2, §3
# Modulation of AA by mycobacterial and mammalian HSP peltides: HSP 65 derived peptides were tested for their ability to modulate the appearance or severity of AA in Lewis rats. Rats were immunized with 100 μg of each peptide in PBS, three weeks (3W), 2W and 1W before induction of AA by MT. Control rats received PBS. Rats were bled for testing antibody presence before injection of MT and 30 days post MT injection.
# To test whether active immunization with bacterial or mammalian HSP peptides that are recognized by protective immunoglobulins can induce protection against AA, Lewis rats were immunized with the mycobacterial peptides 6, 7, 21, 31, 36, 45, 84, that bound antibodies from resistant Lewis rats (“protective” peptides), with some non-reactive mycobacterial HSP 65 peptides: peptide 26 (residues 151-166), 28 (residues 163-178) or peptide 70 (residues 415-430), and with the mammalian peptide 5.
# Rats were injected 3 times intraperitoneally (IP), with one week intervals between injections before induction of AA with MT.
# Lewis rats [4] = experiment: Modulation of Adjuvant Arthritis by pre-immunization with HSP peptides; format: in vivo, rat; settings: 3 IP injections at one week intervals before AA induction with MT, FIG. 4
# rat immunoglobulins [5] = experiment: Dot-Blot of rat immunoglobulins with synthetic HSP peptides; format: binding
# Procedure: Dot Blots assay: Antigens were dissolved in PBS and samples of 1 μg were adsorbed on Nitrocellulose paper. The paper was air-dried and incubated with BSA 1% in PBS for 20 min. to block non-specific binding. The samples were then washed in PBS-Tween 0.05% and incubated with rat sera diluted 1:100 in BSA-PBS, for 90 min. at room temp. Samples were washed and incubated with goat anti rat antibody conjugated to alkaline phosphatase diluted 1:1000 in BSA-PBS for 90 min. at RT. After re-washing the color reaction was developed by adding a mixture of BCIP-NBT (Sigma-Fast, Sigma) to the […] for 15 min. The reaction was stopped by the addition of tap water.
# To define the epitopes recognized by the anti bacterial HSP antibodies, the inventors tested by Dot-Blot the interaction of immunoglobulins from naive young BN rats and post AA Lewis rats with 90 16-mer synthetic peptides of the Mycobacterial 65 KD HSP. Immunoglobulins from naive young Lewis rats served as control.
# as §4
# [6] = BN and post-AA Lewis rats, not naive Lewis rats
# [7] = all of the rats immunoglobulins tested
Substance,Antibodies to Mycobacterial HSP 65 Peptides (rat immunoglobulins [1]; strain BN-6w),Antibodies to Mycobacterial HSP 65 Peptides (rat immunoglobulins [1]; strain Lew-4m),Antibodies to Mycobacterial HSP 65 Peptides (rat immunoglobulins [1]; strain Lew-6w),Antibodies to Mycobacterial HSP 65 Peptides (rat immunoglobulins [1]; strain Lew-9m),Antibodies to Mycobacterial HSP 65 Peptides (rat immunoglobulins [1]; strain Lew-Post AA),Antibodies to Mammalian HSP 60 Peptides (rat immunoglobulins [2]; strain BN-6w),Antibodies to Mammalian HSP 60 Peptides (rat immunoglobulins [2]; strain Lew-4m),Antibodies to Mammalian HSP 60 Peptides (rat immunoglobulins [2]; strain Lew-6w),Antibodies to Mammalian HSP 60 Peptides (rat immunoglobulins [2]; strain Lew-9m),Antibodies to Mammalian HSP 60 Peptides (rat immunoglobulins [2]; strain Lew-Post AA),"Anti HSP Antibodies in Immunized Lewis Rats, Antigen M5 (Lewis rats [3])","Anti HSP Antibodies in Immunized Lewis Rats, Antigen MT-HSP 65 (Lewis rats [3])","Anti HSP Antibodies in Immunized Lewis Rats, Antigen 6 (Lewis rats [3])","Anti HSP Antibodies in Immunized Lewis Rats, Antigen 7 (Lewis rats [3])",AA disease severity after pre-immunization (Lewis rats [4]),reaction with immunoglobulins in Dot-Blot (rat immunoglobulins [5]; [6]),reaction with immunoglobulins in Dot-Blot (rat immunoglobulins [5]; [7]),reaction with immunoglobulins in Dot-Blot (rat immunoglobulins [5]; Lewis rats immunized with CFA)
HSP 65: Recombinant HSP 65 of Mycobacterium Tuberculosis,+++ (>0.75 = +++),− (<O. 15 = −),− (<O. 15 = −),+ (0.16-0.45 = +),++ (0.46-0.75 = ++),,,,,,,,,,,,,
"TVIIEQSWGSPKVTKDGVTV (listed as Rattus norvegicus) [Peptide R5, mammalian HSP 60 peptide, residues 61-80]",,,,,,+ (0.16-0.45 = +),− (<O. 15 = −),− (<O. 15 = −),++ (0.46-0.75 = ++),+++ (>0.75 = +++),− (<O. 15 = −),+ (0.16-0.45 = +),+ (0.16-0.45 = +),− (<O. 15 = −),significant suppression of disease severity,reacted,,
"63: 16-mer synthetic peptide of Mycobacterial HSP 65, residues 373-388, SEQ ID #16 [Peptide 63]",+ (0.16-0.45 = +),+ (0.16-0.45 = +),+ (0.16-0.45 = +),+++ (>0.75 = +++),++ (0.46-0.75 = ++),,,,,,,,,,,,reacted,
"40: 16-mer synthetic peptide of Mycobacterial HSP 65, residues 236-251, SEQ ID #13 [Peptide 40]",++ (0.46-0.75 = ++),+ (0.16-0.45 = +),+ (0.16-0.45 = +),++ (0.46-0.75 = ++),++ (0.46-0.75 = ++),,,,,,,,,,,,reacted,
VVLEKKWGAPTITNDG [Peptide 7],+ (0.16-0.45 = +),− (<O. 15 = −),− (<O. 15 = −),+ (0.16-0.45 = +),+ (0.16-0.45 = +),,,,,,− (<O. 15 = −),+ (0.16-0.45 = +),+ (0.16-0.45 = +),− (<O. 15 = −),significant suppression of disease severity,,,
"31: 16-mer synthetic peptide of Mycobacterial HSP 65, residues 181-196, SEQ ID #11 [Peptide 31]",+ (0.16-0.45 = +),− (<O. 15 = −),− (<O. 15 = −),++ (0.46-0.75 = ++),++ (0.46-0.75 = ++),,,,,,,,,,,,,
"M 30: 20-mer synthetic peptide of the mammalian HSP 60, residues 436-455 (IVLGGGCALLRCIPALDSLK)",,,,,,+ (0.16-0.45 = +),− (<O. 15 = −),− (<O. 15 = −),++ (0.46-0.75 = ++),++ (0.46-0.75 = ++),,,,,,reacted,,
"59: 16-mer synthetic peptide of Mycobacterial HSP 65, residues 349-364, SEQ ID #15 [Peptide 59]",+ (0.16-0.45 = +),− (<O. 15 = −),− (<O. 15 = −),− (<O. 15 = −),+++ (>0.75 = +++),,,,,,,,,,,,,
"84: 16-mer synthetic peptide of Mycobacterial HSP 65, residues 499-514, SEQ ID #17 [Peptide 84]",− (<O. 15 = −),− (<O. 15 = −),− (<O. 15 = −),− (<O. 15 = −),+ (0.16-0.45 = +),,,,,,,,,,,,,reacted
"36: 16-mer synthetic peptide of Mycobacterial HSP 65, residues 211-226, SEQ ID #12 [Peptide 36]",++ (0.46-0.75 = ++),+ (0.16-0.45 = +),− (<O. 15 = −),+ (0.16-0.45 = +),+++ (>0.75 = +++),,,,,,,,,,,,,
"45: 16-mer synthetic peptide of Mycobacterial HSP 65, residues 265-280, SEQ ID #14 [Peptide 45]",+ (0.16-0.45 = +),+ (0.16-0.45 = +),− (<O. 15 = −),+ (0.16-0.45 = +),++ (0.46-0.75 = ++),,,,,,,,,,,,,
"21: 16-mer synthetic peptide of Mycobacterial HSP 65, residues 121-136, SEQ ID #10 [Peptide 21]",− (<O. 15 = −),− (<O. 15 = −),− (<O. 15 = −),− (<O. 15 = −),+ (0.16-0.45 = +),,,,,,,,,,,,,reacted
